This is an account of results in paper PMC6081875 (EJNMMI Research, 2018).

The structures appear in SMILES notation.

The subject of data set [1] is bone marrow. The data set is described as follows: Bone marrow dosimetry, reference protocol (RP): sequential whole-body planar and quantitative SPECT images plus blood samples, organ-level S values. It is filed as in vivo. The procedure:
(§1) Data for dosimetry were acquired during a routine 4-day in-patient stay following the radiopharmaceutical injection, in conjunction with standard clinical examinations. All patients received a 15-min one-bed abdominal SPECT scan and a 20-min whole-body planar scintigraphy at 24, 48, and 72 h post-injection (p. i.) on a dual-headed Symbia T2 SPECT/CT (Siemens Medical Solutions, Erlangen, Germany). Counts were detected for the photopeak window of 208 keV (width 15%) by the usage of a medium-energy low-penetration collimator. Two additional scatter windows were measured at 170 keV (width 15%) and 240 keV (width 10%). A low-dose AC-CT was acquired at the first image acquisition session for anatomical correlation and attenuation correction during quantitative SPECT reconstruction. For the determination of the absorbed dose to the bone marrow from the activity circulating in the blood, five venous blood samples were drawn from the site contralateral to injection at 30 and 80 min p. i. and 24, 48, and 72 h p. i..
Quantitative SPECT images were reconstructed as described by Delker et al. via a rotation-based, penalised, one-step-late ordered subset expectation maximisation algorithm, which included corrections for scatter, attenuation, and distance-dependent geometrical collimator blur. Attenuation correction was performed for each SPECT scan via the AC-CT, which was acquired along with the SPECT scan 24 h post-injection. To apply the attenuation correction, especially to the SPECT scans 48 and 72 h p. i., the single AC-CT was co-registered onto an initial SPECT reconstruction without attenuation correction by using a rigid body co-registration algorithm with six degrees of freedom (PMOD Version 3.609, PMOD Technologies, Zurich, Switzerland). If only one AC-CT is acquired for sequential SPECT imaging, special care has to be taken to minimise misregistration between SPECT images and separately acquired CT scans, as such a misalignment can distort the proper attenuation correction and, thus, activity quantification. This is in principal also true for serial SPECT and CT imaging, as even within a single image acquisition session patient movements cannot be entirely avoided. Scatter correction employed the triple energy window (TEW) method. Correction for distance-dependent collimator blur made use of a Gaussian blur model. Corrections for partial volume effects and dead time were not applied. For conversion of the measured counts per second and per voxel to Becquerel per millilitre, an appropriate calibration factor was determined. Therefore, we used a large cylinder of approximately 20 cm diameter, which was filled with a known activity concentration and which has been imaged and reconstructed via the same protocol.
For each patient, all acquired whole-body planar images were corrected for scatter and attenuation on a pixel basis via a dedicated MATLAB routine (Fig. 1); for the correction of scatter, the TEW method was applied, as for the quantitative SPECT images. For the attenuation correction, a linear projection of μ values along the ventral axis of the patient was created from the diagnostic CT image of the pre-therapeutic Ga-68 PET/CT scan, which covered nearly the whole patient body from the middle of the head to approximately the knees. Therefore, a conversion between the Hounsfield units (HUs) in the diagnostic CT and the μ values at 208 keV was established by acquiring a CT scan of a Gammex tissue phantom (Gammex 467; Gammex, Inc., Middleton, WI) with 16 tissue rods of known composition and thus known attenuation characteristics. The μ values of all rods were plotted against the measured HUs, and a bilinear fit model (range 1: HU = (− 688;0); range 2: HU = (0;1127)) was applied to the whole data set. This calibration curve allows for the assignment of μ values to a continuous range of HUs. […]

Data set [2] is described as follows: Whole-body effective half-life from sequential whole-body planar images (mono-exponential fit). It is filed as in vivo, human. The note with it: mono-exponential fit, 24, 48, 72 h p. i. The procedure: as §1
For each patient, all acquired whole-body planar images were corrected for scatter and attenuation on a pixel basis via a dedicated MATLAB routine (Fig. 1); for the correction of scatter, the TEW method was applied, as for the quantitative SPECT images. For the attenuation correction, a linear projection of μ values along the ventral axis of the patient was created from the diagnostic CT image of the pre-therapeutic Ga-68 PET/CT scan, which covered nearly the whole patient body from the middle of the head to approximately the knees. Therefore, a conversion between the Hounsfield units (HUs) in the diagnostic CT and the μ values at 208 keV was established by acquiring a CT scan of a Gammex tissue phantom (Gammex 467; Gammex, Inc., Middleton, WI) with 16 tissue rods of known composition and thus known attenuation characteristics. The μ values of all rods were plotted against the measured HUs, and a bilinear fit model (range 1: HU = (− 688;0); range 2: HU = (0;1127)) was applied to the whole data set. This calibration curve allows for the assignment of μ values to a continuous range of HUs. The lower arms and legs as well as a part of the head were not included in the PET/CT data, as the arms are usually positioned above the head during the PET/CT scan and as the PET/CT scan is usually not acquired over the entire patient length. By contrast, the arms, legs, and head are fully included in the whole-body planar images, and an appropriate μ value has to be defined for each segment (Fig. 1). Thus, mean μ values derived from three patients with PET/CT acquisitions of the head, legs, and arms were assigned to the missing segments. Therefore, all segments—the part visible on the PET/CT and the missing parts of the head, arms, and legs—were delineated on the co-registered whole-body planar images (delineation and rigid body co-registration via PMOD Version 3.609). The resulting map of the regions of interest (ROI) was saved, with each ROI segment being characterised via a defined value. This ROI map was then loaded by a self-designed MATLAB routine, which assigned the defined μ value to each segment according to the ROI number. Afterwards, the resulting whole-body integral μ-map was blurred via a Gaussian filter with a width approximating an average resolution of the gamma camera (geometric resolution of full width at half maximum of 11 mm at 10 cm). Pixel-wise attenuation correction was finally performed in conjunction with geometric averaging of both planar views (conjugate view method).
Calibration of whole-body planar images was performed via the corresponding quantitative abdominal SPECT by using the fact that ideally the total activity ASPECT within the quantitative SPECT should be correlated to the number of counts per second (cps) xplanar in the planar abdominal counterpart multiplied by an appropriate calibration factor: […]

[3] abbreviates: median of n = 5 patients per therapy, approx. 7.4 GBq Lu-177-Octreotate (NET) or 3.7 GBq Lu-177-PSMA-617 (mCRPC).
[4] abbreviates: median of n = 5 patients per therapy.

On to `C[C@@H](O)[C@H](NC(=O)[C@@H]1CSSC[C@H](NC(=O)[C@@H](Cc2ccccc2)NC(=O)CN2CCN(CC(=O)O)CCN(CC(=O)O)CCN(CC(=O)O)CC2)C(=O)N[C@@H](Cc2ccc(O)cc2)C(=O)N[C@H](Cc2c[nH]c3ccccc23)C(=O)N[C@@H](CCCCN)C(=O)N[C@@H]([C@@H](C)O)C(=O)N1)C(=O)O` [Lu-177-Octreotate, Lu-177-[DOTA^0,Tyr^3]-Octreotate, metal not drawn], for which the “DBM ← total, total bone marrow absorbed dose, RP” value in data set [1] (setting [3]) came to 12.1 mGy/GBq; in data set [1] (patient P1 (NET, 7654 MBq)), 12.1 mGy/GBq; in data set [1] (patient P2 (NET, 7425 MBq)), 9.6 mGy/GBq; in data set [1] (patient P3 (NET, 7420 MBq)), 15.6 mGy/GBq; in data set [1] (patient P4 (NET, 7409 MBq)) it was 11.8 mGy/GBq; in data set [1] (patient P5 (NET, 7410 MBq)) it was 12.7 mGy/GBq. For the same molecule, the “T1/2, WB, planar-based whole-body effective half-life” value is 43 h in data set [2] (setting [4]); 40 h in data set [2] (patient P1 (NET)); 43 h in data set [2] (patient P2 (NET)); 43 h in data set [2] (patient P3 (NET)); 52 h in data set [2] (patient P4 (NET)); 62 h in data set [2] (patient P5 (NET)).

As to `O=C(O)CC[C@H](NC(=O)N[C@@H](CCCCNC(=O)[C@H](Cc1ccc2ccccc2c1)NC(=O)[C@H]1CC[C@H](CNC(=O)CN2CCN(CC(=O)O)CCN(CC(=O)O)CCN(CC(=O)O)CC2)CC1)C(=O)O)C(=O)O` [Lu-177-PSMA-617, Lu-177-DKFZ-PSMA-617, metal not drawn], the “DBM ← total, total bone marrow absorbed dose, RP” value in data set [1] (setting [3]) turned out to be 10.2 mGy/GBq; in data set [1] (patient P6 (mCRPC, 3718 MBq)) it was 10.2 mGy/GBq; in data set [1] (patient P7 (mCRPC, 3743 MBq)) it was 6.7 mGy/GBq; in data set [1] (patient P8 (mCRPC, 3745 MBq)), 16.8 mGy/GBq; in data set [1] (patient P9 (mCRPC, 3752 MBq)), 14.2 mGy/GBq; in data set [1] (patient P10 (mCRPC, 3700 MBq)), 8.3 mGy/GBq. For the same molecule, the “T1/2, WB, planar-based whole-body effective half-life” value in data set [2] (setting [4]) worked out at 31 h; in data set [2] (patient P6 (mCRPC)), 22 h; in data set [2] (patient P7 (mCRPC)), 31 h; in data set [2] (patient P8 (mCRPC)), 65 h; in data set [2] (patient P9 (mCRPC)), 39 h; in data set [2] (patient P10 (mCRPC)), 29 h.
